Assay [1] deals with T1, ROS1 (Homo sapiens, UniProt P08922).
T1 construct: purchased Carna Biosciences 08-163
The experiment in a line: ROS1 kinase inhibitory activity evaluation (mobility shift, EZ Reader II). Format: biochemical. To be noted: ROS1 25 pg/μL, FL-Peptide 22 substrate, three separate measurements. On the procedure: Next, a substrate reaction solution was prepared. […] Then, the reaction stop solution was added thereto at a concentration of 40 μL/well. Substrate phosphorylation intensity was measured using EZ Reader II (Caliper Life Sciences).

Assay [2] concerns HCC78 cells having ROS1 fusion gene. Kind of assay: HCC78 cell growth assay (CellTiter-Glo). It is filed as cell-based. The conditions noted are these: Homo sapiens, HCC78, 72 h, 72 hours culture, 2% FBS medium, luminescence, four separate measurements; read-out: growth inhibitory effect on HCC78 cells having ROS1 fusion gene IC50.
For assay [3], the target named is T1, ROS1. The experiment in a line: ROS1 autophosphorylation inhibitory activity evaluation (ADP-Glo). The conditions noted are these: 200 nM inactive ROS1, ATP 1 mM, 25° C. 1.5 hours, ADP generated, four separate measurements. Format: biochemical. The essentials: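 ROS1 autophosphorylation ran with 1 mM final ATP in 50 mM HEPES pH 7.5, 10 mM MgCl2, 0.01% Brij-58, 2.5 mM DTT for 1.5 h at 25° C. ADP generated was read by ADP-Glo luminescence. IC50 values were obtained by curve fitting.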
A general note: ADP-Glo turns the ADP formed in a reaction into a luminescent signal.

Drawing on patent publication US9751887B2, “Imidazo[1,2-b]pyridazine derivatives as kinase inhibitors” (Daiichi Sankyo Company, Limited, priority 2012, dated 2017), this text covers IC50 for 26 molecules.

pIC50: −log10 of the molar value.

One may read the pIC50 as −log10 of the IC50, conventionally taken in molar units.

T1 sequence (P08922 28-2347): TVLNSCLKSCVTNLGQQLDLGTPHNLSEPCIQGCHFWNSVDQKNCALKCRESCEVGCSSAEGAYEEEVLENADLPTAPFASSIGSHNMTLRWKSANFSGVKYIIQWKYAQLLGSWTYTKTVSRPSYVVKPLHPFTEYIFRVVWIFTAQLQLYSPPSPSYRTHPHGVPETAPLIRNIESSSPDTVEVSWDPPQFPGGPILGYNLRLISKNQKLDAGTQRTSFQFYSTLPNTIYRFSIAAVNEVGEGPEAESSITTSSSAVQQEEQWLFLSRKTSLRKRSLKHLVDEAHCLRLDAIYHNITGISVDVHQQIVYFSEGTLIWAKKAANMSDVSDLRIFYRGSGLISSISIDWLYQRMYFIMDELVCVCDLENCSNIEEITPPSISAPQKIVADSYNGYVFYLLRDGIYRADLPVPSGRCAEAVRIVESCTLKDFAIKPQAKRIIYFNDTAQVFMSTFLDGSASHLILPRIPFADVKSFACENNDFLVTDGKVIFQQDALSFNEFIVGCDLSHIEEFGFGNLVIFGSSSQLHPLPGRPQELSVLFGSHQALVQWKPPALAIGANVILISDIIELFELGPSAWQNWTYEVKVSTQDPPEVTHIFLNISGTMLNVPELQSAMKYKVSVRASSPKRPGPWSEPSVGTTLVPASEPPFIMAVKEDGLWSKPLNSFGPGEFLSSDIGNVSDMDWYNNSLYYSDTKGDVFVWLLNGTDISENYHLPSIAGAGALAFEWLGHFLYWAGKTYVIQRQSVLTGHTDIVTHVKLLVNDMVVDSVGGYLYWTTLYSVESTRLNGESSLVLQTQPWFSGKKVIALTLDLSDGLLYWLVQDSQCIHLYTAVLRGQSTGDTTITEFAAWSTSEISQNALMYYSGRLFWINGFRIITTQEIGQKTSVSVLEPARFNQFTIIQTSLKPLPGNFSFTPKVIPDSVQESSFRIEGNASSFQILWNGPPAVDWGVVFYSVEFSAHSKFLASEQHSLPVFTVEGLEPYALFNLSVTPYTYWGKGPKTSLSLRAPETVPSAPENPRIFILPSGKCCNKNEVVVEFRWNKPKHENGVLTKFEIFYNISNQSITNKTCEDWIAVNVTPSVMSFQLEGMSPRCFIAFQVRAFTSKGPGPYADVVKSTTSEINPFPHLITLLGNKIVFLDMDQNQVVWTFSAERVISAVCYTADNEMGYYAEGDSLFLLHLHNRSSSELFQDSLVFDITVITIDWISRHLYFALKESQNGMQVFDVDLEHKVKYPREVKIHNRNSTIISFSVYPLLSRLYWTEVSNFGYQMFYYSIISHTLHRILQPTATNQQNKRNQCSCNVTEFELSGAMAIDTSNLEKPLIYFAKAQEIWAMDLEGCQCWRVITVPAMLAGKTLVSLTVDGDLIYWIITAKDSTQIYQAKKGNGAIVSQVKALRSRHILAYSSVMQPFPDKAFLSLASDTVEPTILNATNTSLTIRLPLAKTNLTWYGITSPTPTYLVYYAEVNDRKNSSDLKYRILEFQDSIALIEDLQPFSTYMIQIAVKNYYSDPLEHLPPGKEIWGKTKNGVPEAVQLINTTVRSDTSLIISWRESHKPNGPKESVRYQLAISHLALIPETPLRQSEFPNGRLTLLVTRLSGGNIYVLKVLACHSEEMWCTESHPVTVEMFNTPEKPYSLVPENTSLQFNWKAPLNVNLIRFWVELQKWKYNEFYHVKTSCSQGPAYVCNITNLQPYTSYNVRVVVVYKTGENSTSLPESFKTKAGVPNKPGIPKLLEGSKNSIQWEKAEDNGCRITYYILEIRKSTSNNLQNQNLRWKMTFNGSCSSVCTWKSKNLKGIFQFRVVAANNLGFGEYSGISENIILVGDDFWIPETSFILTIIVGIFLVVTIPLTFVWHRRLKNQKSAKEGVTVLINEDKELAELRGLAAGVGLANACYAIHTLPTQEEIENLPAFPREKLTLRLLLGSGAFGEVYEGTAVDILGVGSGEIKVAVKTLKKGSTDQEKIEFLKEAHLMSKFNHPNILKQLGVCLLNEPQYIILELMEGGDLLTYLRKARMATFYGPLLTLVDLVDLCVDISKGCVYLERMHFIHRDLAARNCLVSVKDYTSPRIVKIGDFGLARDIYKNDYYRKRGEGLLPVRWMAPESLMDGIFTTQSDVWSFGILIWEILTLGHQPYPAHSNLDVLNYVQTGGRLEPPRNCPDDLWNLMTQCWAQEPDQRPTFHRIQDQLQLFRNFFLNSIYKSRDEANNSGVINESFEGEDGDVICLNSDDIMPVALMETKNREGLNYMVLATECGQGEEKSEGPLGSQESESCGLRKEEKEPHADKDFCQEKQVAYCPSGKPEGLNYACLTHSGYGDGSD

With `C[C@@H](Nc1ccc2ncc(-c3ccc(N4C[C@@H](N)CC4=O)cc3)n2n1)c1ccccc1` [Example 88, (4S)-4-Amino-1-[4-[6-[[(1R)-1-phenylethyl]amino]imidazo[1,2-b]pyridazin-3-yl]phenyl]pyrrolidin-2-one], the pIC50 was over 9.00 on ROS1 [1], over 7.70 in assay [2] and over 7.70 on ROS1 [3].
Regarding `Cc1cc(N2C[C@@H](N)CC2=O)ccc1-c1cnc2ccc(N[C@H](C)c3ccccc3)nn12` [Example 89, (4S)-4-Amino-1-[3-methyl-1-[6-[[(1R)-1-phenylethyl]amino]imidazo[1,2-b]yl]phenyl]pyrrolidin-2-one], the pIC50 at ROS1 [1] is 7.22 to 8.00; in assay [2] it was 6.22 to 7.00; at ROS1 [3], 7.00 to 7.70.
Taken in the same sequence, the figures for `C[C@@H](Nc1ccc2ncc(-c3cccc(N4C[C@@H](N)CC4=O)c3)n2n1)c1cccc(F)c1` [Example 91, (4S)-4-Amino-1-[3-[6-[[(1R)-1-(3-fluorophenyl)ethyl]amino]imidazo[1,2-b]pyridazin-3-yl]phenyl]pyrrolidin-2-one] were 8.00 to 9.00, 7.00 to 7.70 and over 7.70.
On to `C[C@@H](Nc1ccc2ncc(-c3ccc(N4C[C@@H](N)CC4=O)c(F)c3)n2n1)c1cccc(F)c1` [Example 92, (4S)-4-Amino-1-[2-fluoro-4-[6-[[(1R)-1-(3-fluorophenyl)ethyl]amino]imidazo[1,2-b]pyridazin-3-yl]phenyl]pyrrolidin-2-one], for which the figures for the pIC50 (at ROS1 [1]; in assay [2]; against ROS1 [3]) were over 9.00, over 7.70 and over 7.70, respectively.
As for `C[C@@H](Nc1ccc2ncc(-c3ccc(N4C[C@@H](N)CC4=O)cc3F)n2n1)c1cccc(F)c1` [Example 93, (4S)-4-Amino-1-[3-fluoro-4-[6-[[(1R)-1-(3-fluorophenyl)ethyl]amino]imidazo[1,2-b]pyridazin-3-yl]phenyl]pyrrolidin-2-one], the figures for the pIC50 (at ROS1 [1]; in assay [2]; against ROS1 [3]) were over 9.00, over 7.70 and over 7.70, respectively.
With `CN(Cc1ccccc1)c1ccc2ncc(-c3ccc(N4C[C@@H](N)CC4=O)cc3)n2n1` [Example 94, (4S)-4-Amino-1-[4-[6-[benzyl(methyl)amino]imidazo[1,2-b]pyridazin-3-yl]phenyl]pyrrolidin-2-one], the figures for the pIC50 (at ROS1 [1]; in assay [2]; against ROS1 [3]) were 8.00 to 9.00, 6.22 to 7.00 and 7.00 to 7.70, respectively.
For `CCN(Cc1ccccc1)c1ccc2ncc(-c3ccc(N4C[C@@H](N)CC4=O)cc3)n2n1` [Example 95, (4S)-4-Amino-1-[4-[6-[benzo(ethyl)amino]imidazo[1,2-b]pyridazin-3-yl]phenyl]pyrrolidin-2-one], the pIC50 on ROS1 [1] is 8.00 to 9.00; in assay [2], 6.22 to 7.00; against ROS1 [3], 7.00 to 7.70.
As to `CN(Cc1cc(F)ccc1F)c1ccc2ncc(-c3ccc(N4C[C@@H](N)CC4=O)cc3)n2n1` [Example 97, (4S)-4-Amino-1-[4-[6-[(2,5-difluorophenyl)methyl-methylamino]imidazo[1,2-b]pyridazin-3-yl]phenyl]pyrrolidin-2-one], the negative logarithm of the IC50 (pIC50) at ROS1 [1] is 8.00 to 9.00; in assay [2], over 7.70; against ROS1 [3], 7.00 to 7.70.
For `CN(Cc1cccc(F)c1F)c1ccc2ncc(-c3ccc(N4C[C@@H](N)CC4=O)cc3)n2n1` [Example 98, (4S)-4-Amino-1-[4-[6-[(2,3-difluorophenyl)methyl-methylamino]imidazo[1,2-b]pyridazin-3-yl]phenyl]pyrrolidin-2-one], the pIC50 on ROS1 [1] is 8.00 to 9.00; in assay [2], 7.00 to 7.70; against ROS1 [3] it was over 7.70.
Taken in the same sequence, the figures for `CN(Cc1cc(F)ccc1Cl)c1ccc2ncc(-c3ccc(N4C[C@@H](N)CC4=O)cc3)n2n1` [Example 99, (4S)-4-Amino-1-[4-[6-[(2-chloro-5-fluorophenyl)methyl-methylamino]imidazo[1,2-b]pyridazin-3-yl]phenyl]pyrrolidin-2-one] were 8.00 to 9.00, 7.00 to 7.70 and 7.00 to 7.70.
In the same order, the values of `CCN(Cc1cccc(F)c1)c1ccc2ncc(-c3ccc(N4C[C@@H](N)CC4=O)cc3)n2n1` [Example 100] are 8.00 to 9.00, 7.00 to 7.70 and over 7.70.
With `N#Cc1cccc(COc2ccc3ncc(-c4ccc(N5C[C@@H](N)CC5=O)cc4)n3n2)c1` [Example 101, 3-[[3-[4-[(4S)-4-Amino-2-oxopyrrolidin-1-yl]phenyl]imidazo[1,2-b]pyridazin-6-yl]oxymethyl]benzonitrile], the pIC50 on ROS1 [1] is 8.00 to 9.00; in assay [2], 6.22 to 7.00; against ROS1 [3], 7.00 to 7.70.
As for `CC(Oc1ccc2ncc(-c3ccc(N4C[C@@H](N)CC4=O)cc3)n2n1)c1cccc(F)c1F` (stereo partly drawn) [Example 102, (4S)-4-Amino-1-[4-[6-[1-(2,3-difluorophenyl)ethoxy]imidazo[1,2-b]pyridazin-3-yl]phenyl]pyrrolidin-2-one], the pIC50 at ROS1 [1] is 8.00 to 9.00; in assay [2], 6.22 to 7.00; on ROS1 [3] it was over 7.70.
Taken in the same sequence, the figures for `Cc1ccc(F)cc1COc1ccc2ncc(-c3ccc(N4C[C@@H](N)CC4=O)cc3)n2n1` [Example 103, (4S)-4-Amino-1-[4-[6-[(5-fluoro-2-methylphenyl)methoxy]imidazo[1,2-b]pyriazin-3-yl]phenyl]pyrrolidin-2-one] were 8.00 to 9.00, 7.00 to 7.70 and 7.00 to 7.70.
In the same order, the values of `CC(Oc1ccc2ncc(-c3ccc(N4C[C@@H](N)CC4=O)cc3)n2n1)c1cc(F)ccc1F` (stereo partly drawn) [Example 104, (4S)-4-Amino-1-[4-[6-[1-(2,5-difluorophenyl)ethoxy]imidazo[1,2-b]pyridazin-3-yl]phenyl]pyrrolidin-2-one] are over 9.00, 7.00 to 7.70 and over 7.70.
Taken in the same sequence, the figures for `CC(Oc1ccc2ncc(-c3ccc(N4C[C@@H](N)CC4=O)cc3)n2n1)c1nccs1` (stereo partly drawn) [Example 105, (4S)-4-Amino-1-[4-[6-(1-thiazol-2-ylethoxy)imidazo[1,2-b]pyridazin-3-yl]phenyl]pyrrolidin-2-one] were 7.22 to 8.00, 6.22 to 7.00 and 7.00 to 7.70.
As for `CC(Oc1ccc2ncc(-c3ccc(N4C[C@@H](N)CC4=O)cc3)n2n1)c1cc(F)cnc1F` (stereo partly drawn) [Example 106], the pIC50 at ROS1 [1] is over 9.00; in assay [2], over 7.70; against ROS1 [3], over 7.70.
For `CC(Oc1ccc2ncc(-c3ccc(N4C[C@@H](N)CC4=O)cc3)n2n1)c1cncc(F)c1` (stereo partly drawn) [Example 107], the values for the pIC50 (at ROS1 [1]; in assay [2]; against ROS1 [3]) were over 9.00, over 7.70 and over 7.70, respectively.
In the case of `CN[C@H]1CC(=O)N(c2ccc(-c3cnc4ccc(O[C@H](C)c5cncc(F)c5)nn34)cc2)C1` [Example 108, (4S)-1-[4-[6-[(1R)-1-(5-Fluoro-3-pyridyl)ethoxy]imidazo[1,2-b]pyridazin-3-yl]phenyl]-4-(methylamino)pyrrolidin-2-one], the negative-log IC50 (pIC50) on ROS1 [1] was 8.00 to 9.00; in assay [2], 7.00 to 7.70; against ROS1 [3] it was 7.00 to 7.70.
On to `C[C@@H](Oc1ccc2ncc(-c3ccc(N4C[C@@H](N)CC4=O)c(F)c3)n2n1)c1cncc(F)c1` [Example 109, (4S)-4-Amino-1-[2-fluoro-4-[6-[(1R)-1-(5-fluoro-3-pyridyl)ethoxy]imidazo[1,2-b]pyridazin-3-yl]phenyl]pyrrolidin-2-one], for which the pIC50 at ROS1 [1] was 7.22 to 8.00; in assay [2], 7.00 to 7.70; against ROS1 [3] it was 6.82 to 7.00.
Taken in the same sequence, the figures for `C[C@@H](Oc1ccc2ncc(-c3ccc(N4C[C@@H](N)CC4=O)cc3F)n2n1)c1cncc(F)c1` [Example 110, (4S)-4-Amino-1-[3-fluoro-4-[6-[(1R)-1-(5-fluoro-3-pyridyl)ethoxy]imidazo[1,2-b]pyridazin-3-yl]phenyl]pyrrolidin-2-one] were 8.00 to 9.00, 7.00 to 7.70 and over 7.70.
Taken in the same sequence, the figures for `Cc1cc(-c2cnc3ccc(OC(C)c4cncc(F)c4)nn23)ccc1N1C[C@@H](N)CC1=O` (stereo partly drawn) [Example 111] were 8.00 to 9.00, 7.00 to 7.70 and 7.00 to 7.70.
For the molecule `CC(Oc1ccc2ncc(-c3ccc(N4C[C@@H](N)CC4=O)cc3)n2n1)c1cncc(Cl)c1` (stereo partly drawn) [Example 112], the pIC50 at ROS1 [1] is 8.00 to 9.00; in assay [2], 7.00 to 7.70; against ROS1 [3], over 7.70.
Taken in the same sequence, the figures for `CC(Oc1ccc2ncc(-c3ccc(N4C[C@@H](N)CC4=O)cc3)n2n1)c1cc(Cl)n(C)n1` (stereo partly drawn) [Example 113, (4S)-4-Amino-1-[4-[6-[1-(5-chloro-1-methylpyrazol-3-yl)ethoxy]imidazo[1,2-b]pyridazin-3-yl]phenyl]pyrrolidin-2-one] were 8.00 to 9.00, over 7.70 and over 7.70.
Consider `CC(Oc1ccc2ncc(-c3ccc(N4C[C@@H](N)CC4=O)cc3)n2n1)c1cc(F)ccc1-n1nccn1` (stereo partly drawn) [Example 114, (4S)-4-Amino-1-[4-[6-[1-[5-fluoro-2-(triazol-2-yl)phenyl]ethoxy]imidazo[1,2-b]pyridazin-3-yl]phenyl]pyrrolidin-2-one], for which the pIC50 on ROS1 [1] is over 9.00; in assay [2], 7.00 to 7.70; on ROS1 [3] it was over 7.70.
Taken in the same sequence, the figures for `CC(Oc1ccc2ncc(-c3ccc(N4C[C@@H](N)CC4=O)cc3)n2n1)c1cn(C(F)F)nn1` (stereo partly drawn) [Example 115, (4S)-4-Amino-1-[4-[6-[1-[1-(difluoromethyl)triazol-4-yl]ethoxy]imidazo[1,2-b]pyridazin-3-yl]phenyl]pyrrolidin-2-one] were 7.22 to 8.00, 6.22 to 7.00 and 6.82 to 7.00.
